Experiments:
[1] = tested on: G207 in U87 and MG co-culture; test: G207 replication in glioma-microglia co-cultures treated with C16; type: cell-based, HSV-1; settings: 0.5 μM of C16
Protocol: FIG. 12B depicts an electrophoresis gel showing total proteins that were harvested from G2O7 infected microglia cells at 24 hours post treatment with either 1 μM of C16, 1 μM of Bay11, or 100 μM of AG. ICP27, ICP4, and […] expression was measured by western blot assay. U87 and MG co-culture were pretreated with 0.5 μM of C16 for 1 hour.
FIG. 12D is a bar graph showing G207 viral replication increasing by 33% in glioma-microglia co-cultures treated with C16.
U87 (5×104) alone or U87+microglia co-culture (5×104+5×104) or BV2 microglia cells (5×104) alone were seeded into a 24-well plate. After overnight incubation (to allow the cells to attach), cells were pretreated with indicated concentration of NFkB inhibitor, Bay-11 (Santa Cruz, Canada) or an indicated concentration of imidazolo-oxindole derivative C16 (Milipore, Canada) or vehicle for 1-2 hours. The cells were then infected with oHSV-1 (G207 or HrR3) virus at a MOI of 1 in presence of chemical inhibitors for another 2 days. The viruses were harvested and titrated in vero cells by plaque forming assay in 12-well plates by triplicates.
The effects of a PKR inhibitor (C16), a NFkappaB inhibitor (Bay11), and an iNOS inhibitor (aminoguanidine hydrochloride) were tested on G207 replication in BV2 cells (Example 15). […]

[2] = tested on: HrR3 in U87 glioma cells; test: PCR viral titer (ICP27 qPCR) of HrR3 in U87 glioma cells; type: cell-based, HSV-1; settings: HrR3 MOI of 1, 48 hours
Protocol: (§1) FIGS. 2A-2B contain charts that show the effect of nifuroxazide on replication of oHSV-1. (FIG. 2A) Indicated cells were infected with HrR3 viruses at MOI-0.1. Viruses were harvested at 48 hours post-infected and titrated in vero cells. Data are presented as mean SD, *P<0.05 vs corresponding vehicle treatment. (FIG. 2B) U87 or glio cells were treated with HrR3 at a MOI of 1 and indicated concentration of nifuroxazide for 48 hours. Total DNA was extracted and subjected to qPCR to detect HSV-1 using ICP27 primer. nifuroxazide mediated oHSV-1% increase was represented in the figure.
(§2) In this example, the effect of nifuroxazide on oHSV-1 anti-tumor efficacy was evaluated. oHSV-1 infected treated glioma cells were incubated with low concentration of nifuroxazide. Replication increased 27- and 40-fold with 0.5 μM nifuroxazide and 10 μM nifuroxazide treated U87 cells respectively. Similarly, virus replication increased 0.8- and 4.7-fold virus in 9L cells treated with 0.5 μM nifuroxazide and 10 μM nifuroxazide respectively (FIG. 2A).

[3] = tested on: ICP27; test: Western blot of ICP27 in HrR3 infected U87 cells; type: cell-based, HSV-1; settings: 0.5 μM, 1 μM and 10 μM nifuroxazide, HrR3 MOI-3, 24 hours
Protocol: FIGS. 4A-4C show the effect of nifuroxazide on HSV-1 gene expression. (FIG. 4A) U87 cells were treated with HrR3 viruses at a MOI-3 and indicated doses of nifuroxazide. 24 hours post infected, total protein was extracted and subjected to western blot analysis. (FIG. 4B) U87 cells were treated with HrR3 at a MOI-5 and indicated concentration of nifuroxazide for 6 hours. ICP27 mRNA level was detected by RT-qPCR. (FIG. 4C) Relative mRNA level (2^−ΔΔCT) is shown. Data are presented as mean SD, *P<0.05 vs corresponding vehicle treatment.
In this example, the underlying mechanism of nifuroxazide mediated oHSV-1 replication enhancement was examined. The effect of nifuroxazide on viral immediate early gene, ICP27 and ICP4 expression was established by Western blot analysis.

[4] = target: T1, STAT3 (Homo sapiens, UniProt P40763); type: cell-based
T1 construct: Extracted protein was then subjected to western blot assay; endogenous in cells; host or cells: U87 cells, with or without HrR3 infection
T1 sequence (P40763 whole entry): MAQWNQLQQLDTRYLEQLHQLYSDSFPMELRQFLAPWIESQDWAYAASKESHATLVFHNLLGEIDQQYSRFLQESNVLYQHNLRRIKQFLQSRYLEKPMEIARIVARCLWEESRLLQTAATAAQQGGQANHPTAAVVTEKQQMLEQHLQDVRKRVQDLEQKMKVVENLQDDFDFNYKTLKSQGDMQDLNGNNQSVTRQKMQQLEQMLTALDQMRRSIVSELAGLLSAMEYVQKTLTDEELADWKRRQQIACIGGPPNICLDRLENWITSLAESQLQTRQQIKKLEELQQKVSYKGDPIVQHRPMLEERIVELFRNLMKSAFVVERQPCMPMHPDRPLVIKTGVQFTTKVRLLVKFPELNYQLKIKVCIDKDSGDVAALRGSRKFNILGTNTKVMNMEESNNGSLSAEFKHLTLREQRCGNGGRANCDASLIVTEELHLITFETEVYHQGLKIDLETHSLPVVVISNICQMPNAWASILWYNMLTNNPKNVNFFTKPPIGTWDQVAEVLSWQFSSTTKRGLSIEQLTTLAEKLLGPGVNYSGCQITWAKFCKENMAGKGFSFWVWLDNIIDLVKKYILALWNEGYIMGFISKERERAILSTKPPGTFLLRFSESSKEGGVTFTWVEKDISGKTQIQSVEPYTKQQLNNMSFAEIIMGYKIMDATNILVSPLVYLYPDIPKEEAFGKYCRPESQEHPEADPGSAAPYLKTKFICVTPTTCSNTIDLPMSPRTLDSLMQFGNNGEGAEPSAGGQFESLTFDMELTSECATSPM
Protocol: (FIG. 5A) U87 cells were treated with HrR3 at a MOI of 5 and indicated concentration of nifuroxazide for 6 hours. Extracted protein was then subjected to western blot assay. (FIG. 5B) U87 cells were treated with indicated concentration of HrR3 or nifuroxazide or stattic or in combination for 72 hours. Cytotoxicity was measured by MTT assay. (FIG. 5C) Relative mRNA level (2^−ΔΔCT) is shown. Data are presented as mean SD, *P<0.05 vs corresponding vehicle treatment.
FIG. 19A and FIG. 19B, U87 cells (A) or CT26 cells (B) were treated with the indicated concentrations of HrR3 or NF or a combination. Total protein was extracted after 24 hours and subjected to western blot analysis. Band intensity was measured using Image J software and normalized to β-actin. Samples were run in triplicate and data are as means±S.E. Statistically significant differences are indicated by P<0.05 or P<0.01. FIG. 19C, Mice subcutaneously bearing U87 tumors were intratumorally injected with a single dose of HrR3 virus (1×10^6 PFU) and/or peritoneally injected doses of NF as indicated. Tumors were harvested on day 10 post treatment and total protein was extracted from a mouse of each treatment group and subjected to western blot analysis in triplicate. Results are reported as means±S.E.
Expression of key regulator of the Type1 interferon signaling, STAT1 and STAT3, was determined in nifuroxazide treated oHSV-1 infected U87 cells.
NF is a known inhibitor of STAT1 and STAT3. To evaluate the underlying molecular mechanism of the anti-tumour effect of the NF and oHSV-1 combination, the STAT1 and STAT3 status in U87 cells (FIG. 19A) and CT26 cells (FIG. 19B) cells was determined after an overnight treatment with NF and oncolytic viruses.

[5] = tested on: oHSV-1 (HrR3) in 9L cells; test: oHSV-1 (HrR3) replication in 9L cells, titrated in vero cells; type: cell-based, HSV-1; settings: HrR3 MOI-0.1, 48 hours
Protocol: as §1, §2

| Structure (SMILES) | G207 viral replication increased [1] [%] | PCR viral titer [2] | ICP27 expression [3] | HrR3 induced upregulation of STAT3 phosphorylation ([4]; 24 hours) | STAT3 phosphorylation ([4]; HrR3 MOI of 5, 6 hours) | phosphorylation of STAT3 ([4]; NF alone, 24 hours) | virus replication increased ([5]; 0.5 μM nifuroxazide) [fold] | virus replication increased ([5]; 10 μM nifuroxazide) [fold] |
| --- | --- | --- | --- | --- | --- | --- | --- | --- |
| O=C1Nc2ccc3ncsc3c2/C1=C/c1c[nH]cn1 [C16, 6,8-Dihydro-8-(1H-imidazol-5-ylmethylene)-7H-pyrrolo[2,3-g]benzothiazol-7-one] | 33 | – | – | – | – | – | – | – |
| O=C(N/N=C/c1ccc([N+](=O)[O-])o1)c1ccc(O)cc1 [nifuroxazide, Benzoic acid, 4-hydroxy-, [(5-nitro-2-furanyl)metylene]hydrazide] | – | dose dependent HrR3 replication enhancement | significantly increases ICP27 expression | effectively suppressed | dose dependent STAT1 and STAT3 phosphorylation reduction | dose dependent inhibition | 0.8 | 4.7 |

Source: US20190307820A1, “COMPOSITIONS AND METHODS OF USING STAT1/3 INHIBITORS WITH ONCOLYTIC HERPES VIRUS” (priority 2016, published 2019)
